This note sets out measurements from patent publication US9340523B2, “Certain dipeptidyl peptidase inhibitors” (FOCHON PHARMA, INC., priority 2009, dated 2016).

Molecules are shown by their SMILES.

The test deals with Recombinant human DPP-IV (Homo sapiens, UniProt P27487). The test can be described thus: DPP-IV assay in vitro (H-Ala-Pro-AFC fluorescence). It counts as biochemical. To be noted: recombinant human DPP-IV 7.8 ng/ml, 30 min pre-incubation, H-Ala-Pro-AFC 50 μM. As for the experimental part: DPP-IV Assay Solutions of test compounds in varying concentrations (10^−5 mol/L, 10^−6 mol/L, 10^−7 mol/L, 10^−8 mol/L, 10^−9 mol/L, 10^−10 mol/L, 10^−11 mol/L, and 10^−12 mol/L) were prepared in dimethyl sulfoxide (DMSO) and then diluted into assay buffer comprising: 10 mM Tris-HCl pH 8.0, 0.2 M NaCl, and 0.1% BSA. Recombinant human DPP-IV (7.8 ng/ml final concentration) was added to the dilutions and pre-incubated for 30 mins at room temperature before the reaction was initiated with H-Ala-Pro-AFC (50 μM final concentration). The total volume of the reaction mixture was 100 μl.
Sequence of Recombinant human DPP-IV (P27487 whole entry): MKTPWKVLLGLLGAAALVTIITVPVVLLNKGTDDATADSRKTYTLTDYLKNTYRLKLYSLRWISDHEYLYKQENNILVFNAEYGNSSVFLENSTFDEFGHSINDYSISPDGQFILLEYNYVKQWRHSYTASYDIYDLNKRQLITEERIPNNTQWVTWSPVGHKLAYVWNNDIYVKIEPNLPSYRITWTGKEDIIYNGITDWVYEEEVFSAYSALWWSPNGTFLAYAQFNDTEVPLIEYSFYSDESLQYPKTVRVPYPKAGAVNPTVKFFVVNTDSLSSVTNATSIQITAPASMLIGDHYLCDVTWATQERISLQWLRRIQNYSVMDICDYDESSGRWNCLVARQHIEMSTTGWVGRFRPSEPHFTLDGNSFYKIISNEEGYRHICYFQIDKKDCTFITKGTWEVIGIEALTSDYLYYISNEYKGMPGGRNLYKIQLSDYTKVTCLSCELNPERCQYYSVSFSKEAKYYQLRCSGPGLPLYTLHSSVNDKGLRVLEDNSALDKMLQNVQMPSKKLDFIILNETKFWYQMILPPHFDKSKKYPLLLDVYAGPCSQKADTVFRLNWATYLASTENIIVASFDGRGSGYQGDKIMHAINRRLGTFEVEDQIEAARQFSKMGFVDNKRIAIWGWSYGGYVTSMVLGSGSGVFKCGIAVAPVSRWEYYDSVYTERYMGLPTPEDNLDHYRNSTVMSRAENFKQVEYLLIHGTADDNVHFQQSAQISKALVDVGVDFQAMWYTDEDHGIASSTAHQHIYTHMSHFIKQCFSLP
The fluorescence of the mixture was measured after 30 minutes (excitation at 405 nm; emission at 535 nm). Inhibition constants (IC50) were calculated by GraphPad Prism.
Turning to `Cc1nnc(N2CCC[C@@H](N)C2)n(Cc2ccccc2C#N)c1=O` [Example 1, (R)-2-((3-(3-aminopiperidin-1-yl)-6-methyl-5-oxo-1,2,4-triazin-4(5H)-yl)methyl)benzonitrile], the IC50 was found to be 22 nM. The value for `Cc1nnc(N2CCC[C@@H](N)C2)n(Cc2cc(F)ccc2Br)c1=O` [Example 2, (R)-3-(3-aminopiperidin-1-yl)-4-(2-bromo-5-fluorobenzyl)-6-methyl-1,2,4-triazin-5(4H)-one] was 242 nM; that for `Cc1nnc(N2CCC[C@@H](N)C2)n(Cc2cc(F)ccc2Cl)c1=O` [Example 4, (R)-3-(3-aminopiperidin-1-yl)-4-(2-chloro-5-fluorobenzyl)-6-methyl-1,2,4-triazin-5(4H)-one] was 640 nM.
